In patent US11247990B1, “Bicyclic fused pyridine compounds as inhibitors of TAM kinases” (ARRAY BIOPHARMA INC., priority 2017, dated 2022) one finds IC50 data, which are given here for 26 compounds.

Structures are written as SMILES. Where only a bound is given, the exact number is not on record here.

Chain of His-tagged recombinant human MER cytoplasmic domain (Q12866 527-999): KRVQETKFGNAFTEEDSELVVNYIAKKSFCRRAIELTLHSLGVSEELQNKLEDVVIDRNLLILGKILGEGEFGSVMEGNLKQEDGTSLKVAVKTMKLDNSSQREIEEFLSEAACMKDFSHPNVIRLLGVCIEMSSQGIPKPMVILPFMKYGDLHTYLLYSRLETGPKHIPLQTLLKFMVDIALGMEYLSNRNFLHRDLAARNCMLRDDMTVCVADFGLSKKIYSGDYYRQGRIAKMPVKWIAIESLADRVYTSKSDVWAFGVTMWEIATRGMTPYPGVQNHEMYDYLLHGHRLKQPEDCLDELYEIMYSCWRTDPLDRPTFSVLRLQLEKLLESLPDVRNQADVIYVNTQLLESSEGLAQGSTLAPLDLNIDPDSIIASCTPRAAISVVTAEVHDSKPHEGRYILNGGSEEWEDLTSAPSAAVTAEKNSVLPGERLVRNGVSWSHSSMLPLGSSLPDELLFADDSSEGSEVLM
Chain of GST-tagged recombinant human TYRO3 kinase domain (Q06418 518-790): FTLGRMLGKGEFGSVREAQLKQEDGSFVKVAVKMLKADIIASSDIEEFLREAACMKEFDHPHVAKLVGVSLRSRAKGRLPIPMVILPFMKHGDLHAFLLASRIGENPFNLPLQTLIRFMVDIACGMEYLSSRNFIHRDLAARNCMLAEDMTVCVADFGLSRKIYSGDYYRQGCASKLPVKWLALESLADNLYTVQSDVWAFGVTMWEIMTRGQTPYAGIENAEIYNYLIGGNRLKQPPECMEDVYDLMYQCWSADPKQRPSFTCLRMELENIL

One assay addresses His-tagged recombinant human MER cytoplasmic domain (Homo sapiens (Human), UniProt Q12866). As to the kind of experiment: MER Enzyme Assay (LanthaScreen Eu Kinase Binding, TR-FRET). The conditions noted are these: averaged IC50. On the procedure: Compounds of Formula I were screened for their ability to inhibit MER kinase using Invitrogen's LanthaScreen™ Eu Kinase Binding technology. […] After a 60-minute incubation at 22° C., the reaction was measured using a PerkinElmer EnVision multimode plate reader via TR-FRET dual wavelength detection, and the percent of control (POC) was calculated using a ratiometric emission factor. […] The POC values are fit to a 4 parameter logistic curve and the IC50 value is point where the curve crosses 50 POC.
For the compound `CNc1cc2c(cn1)c(-c1cnn(C)c1)nn2[C@H]1CC[C@@H](Oc2cccnc2OC)CC1` [Example 142, 1-((1s,4s)-4-((2-methoxypyridin-3-yl)oxy)cyclohexyl)-N-methyl-3-(1-methyl-1H-pyrazol-4-yl)-1H-pyrazolo[4,3-c]pyridin-6-amine], the IC50 was less than 10 nM. Turning to `CCNc1cc2c(cn1)c(-c1ccc(CN3CCN(C)CC3)cc1)nn2[C@H]1CC[C@@H](Oc2cn(C)nc2C)CC1` [Example 229, 1-((1s,4s)-4-((1,3-dimethyl-1H-pyrazol-4-yl)oxy)cyclohexyl)-N-ethyl-3-(4-((4-methylpiperazin-1-yl)methyl)phenyl)-1H-pyrazolo[4,3-c]pyridin-6-amine], the IC50 was less than 10 nM. Turning to `CCNc1cc2c(cn1)c(-c1cnc(OC)nc1)nn2[C@H]1CC[C@@H](Oc2nccc(C(F)(F)F)c2F)CC1` [Example 269, N-ethyl-1-((1s,4s)-4-((3-fluoro-4-(trifluoromethyl)pyridin-2-yl)oxy)cyclohexyl)-3-(2-methoxypyrimidin-5-yl)-1H-pyrazolo[4,3-c]pyridin-6-amine], the half-inhibitory concentration (IC50) is less than 10 nM. Take `CNc1cc2c(cn1)c(-c1cnn(C)c1)nn2[C@H]1CC[C@@H](Oc2cccc(C)c2)CC1` [Example 366, N-methyl-3-(1-methyl-1H-pyrazol-4-yl)-1-((1s,4s)-4-(m-tolyloxy)cyclohexyl)-1H-pyrazolo[4,3-c]pyridin-6-amine]: the half-maximal inhibitory concentration (IC50) was less than 10 nM. As for `CCNc1cc2c(cn1)n(-c1ccc(CN3CCN(C)CC3)cc1)nc2[C@H]1CC[C@@H](Oc2ccccc2F)CC1` [Example 482, N-ethyl-3-((1s,4s)-4-(2-fluorophenoxy)cyclohexyl)-1-(4-((4-methylpiperazin-1-yl)methyl)phenyl)-1H-pyrazolo[3,4-c]pyridin-5-amine], the IC50 was less than 10 nM. Take `CNc1cc2c(cn1)c(-c1cnn(C)c1)nn2[C@H]1CC[C@@H](Oc2c(F)cccc2F)CC1` [Example 356, 1-((1s,4s)-4-(2,6-difluorophenoxy)cyclohexyl)-N-methyl-3-(1-methyl-1H-pyrazol-4-yl)-1H-pyrazolo[4,3-c]pyridin-6-amine]: the IC50 was less than 10 nM.

`CCNc1cc2c(cn1)c(-c1cnn(C3CS(=O)(=O)C3)c1)nn2[C@H]1CC[C@@H](Oc2ccccc2F)CC1` [Example 426, 3-(4-(6-(ethylamino)-1-((1s,4s)-4-(2-fluorophenoxy)cyclohexyl)-1H-pyrazolo[4,3-c]pyridin-3-yl)-1H-pyrazol-1-yl)thietane 1,1-dioxide]: the IC50 was less than 10 nM.

With `CNc1cc2c(cn1)c(-c1cnn(C)c1)nn2[C@H]1CC[C@@H](Oc2cccc(=O)n2C)CC1` [Example 110, 1-methyl-6-(((1s,4s)-4-(3-(1-methyl-1H-pyrazol-4-yl)-6-(methylamino)-1H-pyrazolo[4,3-c]pyridin-1-yl)cyclohexyl)oxy)pyridin-2(1H)-one], the half-maximal inhibitory concentration (IC50) is less than 10 nM. Turning to `CCNc1cc2c(cn1)c(-c1ccc(CN3CCN(CCOC)CC3)cc1)nn2[C@H]1CC[C@@H](Oc2ccc(=O)n(C)n2)CC1` [Example 82, 6-(((1s,4s)-4-(6-(ethylamino)-3-(4-((4-(2-methoxyethyl)piperazin-1-yl)methyl)phenyl)-1H-pyrazolo[4,3-c]pyridin-1-yl)cyclohexyl)oxy)-2-methylpyridazin-3(2H)-one], the IC50 is less than 10 nM.

For the compound `CCNc1cc2c(cn1)c(-c1cnn(C(CO)CO)c1)nn2[C@H]1CC[C@@H](Oc2ccccc2F)CC1` [Example 411, 2-(4-(6-(ethylamino)-1-((1s,4s)-4-(2-fluorophenoxy)cyclohexyl)-1H-pyrazolo[4,3-c]pyridin-3-yl)-1H-pyrazol-1-yl)propane-1,3-diol], the IC50 was less than 10 nM. In the case of `CCNc1cc2c(cn1)c(-c1ccc(CN3CC[C@@H](C)C3)cc1)nn2C1CCC(Oc2ccc(=O)n(C)n2)CC1` (stereo partly drawn) [Example 98, 6-(((1S,4s)-4-(6-(ethylamino)-3-(4-(((R)-3-methylpyrrolidin-1-yl)methyl)phenyl)-1H-pyrazolo[4,3-c]pyridin-1-yl)cyclohexyl)oxy)-2-methylpyridazin-3(2H)-one], the half-maximal inhibitory concentration (IC50) is less than 10 nM. On to `CCNc1cc2c(cn1)c(-c1cnn(C[C@@H](O)CO)c1)nn2[C@H]1CC[C@@H](Oc2ccnc(C(F)(F)F)n2)CC1` [Example 241, (R)-3-(4-(6-(ethylamino)-1-((1s,4S)-4-((2-(trifluoromethyl)pyrimidin-4-yl)oxy)cyclohexyl)-1H-pyrazolo[4,3-c]pyridin-3-yl)-1H-pyrazol-1-yl)propane-1,2-diol], for which the half-maximal inhibitory concentration (IC50) was less than 10 nM. With `CCNc1cc2c(cn1)c(-c1cnn(C)c1)nn2[C@H]1CC[C@@H](Oc2cccnc2CC)CC1` [Example 193, N-ethyl-1-((1s,4s)-4-((2-ethylpyridin-3-yl)oxy)cyclohexyl)-3-(1-methyl-1H-pyrazol-4-yl)-1H-pyrazolo[4,3-c]pyridin-6-amine], the IC50 was less than 10 nM. Still for that read-out and setting: with `CCNc1cc2c(cn1)c(-c1cnn(C(CO)CO)c1)nn2[C@H]1CC[C@@H](Oc2ccc(F)cc2)CC1` [Example 413] the figure was less than 10 nM; with `CCNc1cc2c(cn1)c(-c1cnn(C3CCS(=O)(=O)C3)c1)nn2[C@H]1CC[C@@H](Oc2ccccc2F)CC1` (some centres unmarked) [Example 425, 3-(4-(6-(ethylamino)-1-((1s,4s)-4-(2-fluorophenoxy)cyclohexyl)-1H-pyrazolo[4,3-c]pyridin-3-yl)-1H-pyrazol-1-yl)tetrahydrothiophene 1,1-dioxide], less than 10 nM; with `CCNc1cc2c(cn1)c(-c1ccc(C(=O)NC3CC3)cc1)nn2[C@H]1CC[C@@H](Oc2cn(C)nc2C)CC1` [Example 231, N-cyclopropyl-4-(1-((1s,4s)-4-((1,3-dimethyl-1H-pyrazol-4-yl)oxy)cyclohexyl)-6-(ethylamino)-1H-pyrazolo[4,3-c]pyridin-3-yl)benzamide], less than 10 nM. For `CNc1cc2c(cn1)c(-c1cnn(C)c1)nn2[C@H]1CC[C@@H](Oc2ccnn2C)CC1` [Example 143, N-methyl-3-(1-methyl-1H-pyrazol-4-yl)-1-((1s,4s)-4-((1-methyl-1H-pyrazol-5-yl)oxy)cyclohexyl)-1H-pyrazolo[4,3-c]pyridin-6-amine], the IC50 is less than 10 nM. Still for that read-out and setting: with `CCNc1cc2c(cn1)c(-c1ccc3c(c1)CNC3=O)nn2[C@H]1CC[C@@H](Oc2cn(C)nc2C)CC1` [Example 230, 5-(1-((1s,4s)-4-((1,3-dimethyl-1H-pyrazol-4-yl)oxy)cyclohexyl)-6-(ethylamino)-1H-pyrazolo[4,3-c]pyridin-3-yl)isoindolin-1-one] the figure was less than 10 nM.

`CCNc1cc2c(cn1)c(-c1cnn(C)c1)nn2[C@H]1CC[C@@H](Oc2ccc(C(=O)NC)cc2C(F)(F)F)CC1` [Example 392, 4-(((1s,4s)-4-(6-(ethylamino)-3-(1-methyl-1H-pyrazol-4-yl)-1H-pyrazolo[4,3-c]pyridin-1-yl)cyclohexyl)oxy)-N-methyl-3-(trifluoromethyl)benzamide]: the concentration for half-maximal inhibition (IC50) was less than 10 nM. For the compound `CCNc1cc2c(cn1)c(C1CCCOC1)nn2[C@H]1CC[C@@H](Oc2nccc(C(F)(F)F)c2F)CC1` (some centres unmarked) [Example 318, N-ethyl-1-((1s,4s)-4-((3-fluoro-4-(trifluoromethyl)pyridin-2-yl)oxy)cyclohexyl)-3-(tetrahydro-2H-pyran-3-yl)-1H-pyrazolo[4,3-c]pyridin-6-amine], the IC50 is less than 10 nM. With `CCNc1cc2c(cn1)c(-c1cnn(C)c1)nn2[C@H]1CC[C@@H](Oc2cnnn2CC)CC1` [Example 225, N-ethyl-1-((1 s,4s)-4-((1-ethyl-1H-1,2,3-triazol-5-yl)oxy)cyclohexyl)-3-(1-methyl-1H-pyrazol-4-yl)-1H-pyrazolo[4,3-c]pyridin-6-amine], the IC50 is less than 10 nM. `CCNc1cc2c(cn1)c(-c1cn[nH]c1)nn2[C@H]1CC[C@@H](Oc2ccccc2F)CC1` [Example 401, N-ethyl-1-((1s,4s)-4-(2-fluorophenoxy)cyclohexyl)-3-(1H-pyrazol-4-yl)-1H-pyrazolo[4,3-c]pyridin-6-amine]: the IC50 is less than 10 nM. Same read-out and setting: with `CCNc1cc2c(cn1)c(-c1cnn(C(C)(C)C#N)c1)nn2[C@H]1CC[C@@H](Oc2ccccc2F)CC1` [Example 400, 2-(4-(6-(ethylamino)-1-((1s,4s)-4-(2-fluorophenoxy)cyclohexyl)-1H-pyrazolo[4,3-c]pyridin-3-yl)-1H-pyrazol-1-yl)-2-methylpropanenitrile] the figure was less than 10 nM; with `CCNc1cc2c(cn1)c(-c1ccc(CN3C[C@H](C)[C@@H](O)C3)cc1)nn2[C@H]1CC[C@@H](Oc2ccc(=O)n(C)n2)CC1` [Example 96, 6-(((1S,4s)-4-(6-(ethylamino)-3-(4-(((3R,4S)-3-hydroxy-4-methylpyrrolidin-1-yl)methyl)phenyl)-1H-pyrazolo[4,3-c]pyridin-1-yl)cyclohexyl)oxy)-2-methylpyridazin-3(2H)-one], less than 10 nM; with `CCNc1cc2c(cn1)c(-c1cnn(C[C@@H](O)CO)c1)nn2[C@H]1CC[C@@H](Oc2cccc(C)c2F)CC1` [Example 438, (R)-3-(4-(6-(ethylamino)-1-((1s,4S)-4-(2-fluoro-3-methylphenoxy)cyclohexyl)-1H-pyrazolo[4,3-c]pyridin-3-yl)-1H-pyrazol-1-yl)propane-1,2 diol], less than 10 nM.

The target of the next assay is GST-tagged recombinant human TYRO3 kinase domain (Homo sapiens (Human), UniProt Q06418). Briefly: TYRO3 Enzyme Assay (LanthaScreen Eu Kinase Binding, TR-FRET). As to conditions: averaged IC50. On the procedure:
Compounds of Formula I were screened for their ability to inhibit TYRO3 kinase using Invitrogen's LanthaScreen™ Eu Kinase Binding technology. […] After a 60-minute incubation at 22° C., the reaction was measured using a PerkinElmer EnVision multimode plate reader via TR-FRET dual wavelength detection, and the percent of control (POC) calculated using a ratiometric emission factor. […] The POC values were fit to a 4 parameter logistic curve and the IC50 value is point where the curve crosses 50 POC.
For `CNc1cc2c(cn1)c(-c1cnn(C)c1)nn2[C@H]1CC[C@H](Oc2ccnc(C)c2)CC1` [Example 121, N-methyl-3-(1-methyl-1H-pyrazol-4-yl)-1-((1r,4r)-4-((2-methylpyridin-4-yl)oxy)cyclohexyl)-1H-pyrazolo[4,3-c]pyridin-6-amine], the IC50 is 1 to 10 µM.
